Tests used:
[1] = tested on: A. castellanii genotype T4 (ATCC 50492) trophozoites; assay: Amoebicidal assay (Trypan blue exclusion, haemocytometer counting); type: cell-based, Acanthamoeba castellanii; settings: for Amoebicidal Activity Inhibition % ± SEM: 50 µM concentration, Supplementary Table S1; for amoebicidal effects / antiamoebic activity against A. castellanii: 50 µM, 24 h, 30 °C; for IC50: tested at 12.5, 25, 50 and 100 µM against A. castellanii
Method: A. castellanii genotype T4 (ATCC 50492) trophozoites were used in this study. The amoebae were axenically cultivated at 30 °C in T-75 cm^3 culture flask using a proteose-peptone yeast extract-glucose (PYG) broth culture. Upon confluency, amoeba cultured flask was placed on ice for 10 min followed by gently tapping to dislodge the adhered trophozoites. Next, culture was centrifuged at 3000× g for 5 min. The supernatant was discarded and the pellet was re-suspended in 1 mL of Roswell Park Memorial Institute (RPMI) media. Finally, amoebae were counted via haemocytometer microscopically and the desired initial inoculum (5 × 10^5) was adjusted and used in different assays. Different molecules were tested against A. castellanii to examine their antiamoebic effects as previously reported. Briefly, A. castellanii (5 × 10^5) were incubated with 50 µM of the tested compounds for 24 h at 30 °C with a final assays volume of 0.5 mL in a 24-well plate. For controls, amoebae cultured in RPMI alone and with 0.25% sodium dodecyl sulfate (SDS) was taken as negative and positive control, respectively. Finally, each well was stained with Trypan blue (0.1%) and viable amoebae trophozoites were enumerated by haemocytometer. In some trails, these compounds were tested at different concentrations (12.5, 25, 50 and 100 µM) to determine their 50% inhibitory concentration (IC50) against A. castellanii.

[2] = tested on: A. castellanii-mediated HeLa cell death; assay: Amoeba-mediated host cell cytotoxicity (cytopathogenicity assay, LDH); type: cell-based, Acanthamoeba castellanii; settings: amoebae pre-treated with 50 µM for 2 h; HeLa overnight; negative control amoeba + cells 100%
Method: Cytopathogenicity assays were accomplished to determine the amoeba-mediated host cell death. A. castellanii (5 × 10^5) trophozoites were treated with 50 µM of the tested molecules at 30 °C for 2 h. Culture containing pre-treated amoebae was centrifuged at 3000× g for 5 min and pellet was re-suspended in 200 µL of serum free RPMI. The whole assay volume with pre-treated amoebae was transferred to HeLa cell monolayer cultured in a 96 well plates. Next, the plates were kept for overnight at 37 °C with 95% humidity and 5% CO2. Finally, amoeba-mediated host cell cytotoxicity was evaluated indirectly by measuring the amount of LDH enzyme released into cell media by damaged cells, as reported earlier.

human cell lines = assay: MTT assay (EC50/CC50 and MNTD90); type: cell-based; settings: for CC50: 50% effective/cytotoxic concentration (CC50), tested at 12.5–100 µM; for EC90: Maximum Non-Toxic Dose, read-out: MNTD/EC90
[3] = tested on: A. castellanii binding to HeLa cells; assay: Adhesion assay: amoebae binding to human cells; type: cell-based, Acanthamoeba castellanii; settings: amoebae pre-treated with 50 µM for 2 h; 60 min on HeLa monolayer
Method: Adhesion assays were performed to determine how the tested molecules affect the binding capability of amoebae to human cells. Firstly, A. castellanii (5 ×10^5) trophozoites were treated with 50 µM of the compounds in serum-free RPMI medium at 30 °C for 2 h. Next, pre-treated amoebae were centrifuged at 3000× g for 5 min and re-suspended the amoeba in 200 µL of RPMI medium. The total assay volume including pre-treated amoeba was transferred to a confluent HeLa cell monolayer cultured in 96-well plates. For control, amoebae trophozoites alone were added to HeLa cell monolayer. The plates were incubated for 60 min at 37 °C with 5% CO2 and 95% humidity and amoebae (unbound) were then counted by haemocytometer. Percent bound amoebae was calculated using the following formula: % amoebae (bound) = 100 − amoebae (unbound)(1)

[4] = tested on: A. castellanii trophozoites; assay: Encystation assay; type: cell-based, Acanthamoeba castellanii; settings: 50 µM, 16% glucose, 30 °C, 48–72 h; negative control 100%
Method: Encystation assays were performed to determine the effects of the tested compounds to prevent the differentiation of A. castellanii trophozoites into the cyst form and 50 µM of the tested compounds were utilized. Briefly, A. castellanii (1 × 10^6) trophozoites were incubated with these compounds with 16% filter-sterilized glucose (as encystation medium) at 30 °C 48–72 h. A. castellanii cultured alone in 16% glucose was taken as negative control. After this incubation, 0.1% sodium dodecyl sulfate (SDS) was added to each well and agitated the plate for 20 min. The SDS resistant cysts were enumerated using a haemocytometer and data was recoded.

C-RAF = tested on: C-RAF; parameters: method as in PMID 32962435; settings: cited from earlier work
V600E-B-RAF = tested on: V600E-B-RAF; parameters: method as in PMID 32962435; settings: cited from earlier work
HeLa cells = assay: In vitro cytotoxicity, lactate dehydrogenase (LDH) assay; type: cell-based, human; settings: 50 µM, 24 h, LDH release
Method: HeLa cells were obtained from the American Type Culture Collection (ATCC CCL-2) and grown at 37 °C with 5% CO2 and 95% humidity in RPMI supplemented with 10% fetal bovine serum (FBS), 1% minimum essential medium amino acids, 1% Penicillin-Streptomycin (Pen-Strep) and 1% L-glutamine. The media was removed aseptically, and cells were detached enzymatically using 2 mL of trypsin EDTA. Next, culture containing dislodged cells was centrifuged at 2500× g for 5 min. The cell pellet was resuspended in the above-mentioned media, subsequently added into 96-well plates and utilized in different assays. In vitro cytotoxic effects of the tested molecules were determined using Lactate dehydrogenase (LDH) assays against human cells. In brief, 50 µM concentration of the tested compounds were incubated with HeLa cells monolayer for 24 h at 37 °C with 5% CO2 in humidified conditions. After this incubation, 0.1% triton X-100 was added to the positive control wells and incubated the plate for 45 min at 37 °C. Then, an equal volume of cells supernatant containing liberated LDH enzyme was mixed with an equal volume of LDH kit reagents (Cytotoxicity Detection kit; Roche Diagnostics, Indianapolis, IN, USA). The positive and negative controls were cell monolayers treated with 0.1 percent Triton X-100 and in RPMI alone. The plate was subjected to multi-plate reader and absorbance was recorded at 490 nm. The percent cytotoxicity was calculated using given formula; % Cell cytotoxicity = sample value − negative control value/positive control value − negative control value × 100.

A. castellanii = tested on: A. castellanii; parameters: method as in PMID 34959694; settings: cited from earlier work

O=C(NCCNc1nccc(-c2c(-c3ccc(F)cc3)nc3sccn23)n1)c1cc(C(F)(F)F)cc(C(F)(F)F)c1 [Compound 1i]
Amoebicidal Activity Inhibition % ± SEM [1]: 55.05% ± 1.25% | amoebicidal effects / antiamoebic activity against A. castellanii [1]: 55% | IC50 [1]: 43.1 µM | amoeba-mediated host cell death reduced up to [2]: 45% | CC50 (human cell lines): 1410 µM | EC90 (human cell lines): 90.9 µM | inhibition of amoebae binding to human cells [3]: 42% | encystation blocked (trophozoites prevented from converting into cysts) [4]: 60%

COc1cccc(-c2nc3sccn3c2-c2ccnc(NCCNC(=O)Nc3cccc(C(F)(F)F)c3)n2)c1 [Compound 1m]
Amoebicidal Activity Inhibition % ± SEM [1]: 69.17% ± 2.39% | amoebicidal effects / antiamoebic activity against A. castellanii [1]: 70% | IC50 [1]: 30 µM | amoeba-mediated host cell death reduced up to [2]: 33% | CC50 (human cell lines): 313 µM | EC90 (human cell lines): 29.5 µM | inhibitory effects against C-RAF kinase (C-RAF): modest inhibitory effects | inhibition of amoebae binding to human cells [3]: 61% | inhibitory effects against V600E-B-RAF kinase (V600E-B-RAF): modest inhibitory effects | encystation blocked (trophozoites prevented from converting into cysts) [4]: 72%

O=C(NCCNc1nccc(-c2c(-c3cccc(O)c3)nc3sccn23)n1)c1ccc(N2CCOCC2)c(C(F)(F)F)c1 [Compound 1zb]
Amoebicidal Activity Inhibition % ± SEM [1]: 67.00% ± 3.19% | amoebicidal effects / antiamoebic activity against A. castellanii [1]: 67% | IC50 [1]: 32.4 µM | amoeba-mediated host cell death reduced up to [2]: 46% | CC50 (human cell lines): 434 µM | EC90 (human cell lines): 24.1 µM | inhibition of amoebae binding to human cells [3]: 55% | encystation blocked (trophozoites prevented from converting into cysts) [4]: 78%

CN1CCN(CCNc2nccc(-c3c(-c4cccc(O)c4)nc4sccn34)n2)S1(=O)=O [Compound 1zd]
Amoebicidal Activity Inhibition % ± SEM [1]: 58.00% ± 3.41% | amoebicidal effects / antiamoebic activity against A. castellanii [1]: 58% | IC50 [1]: 41 µM | EC90 (human cell lines): 145 µM | inhibition of amoebae binding to human cells [3]: 42% | encystation blocked (trophozoites prevented from converting into cysts) [4]: 62% | cytotoxicity against HeLa cells (HeLa cells): 37%

CNCC(=O)OCc1cccnc1N(C)C(=O)OC(C)[n+]1cnn(C[C@](O)(c2cc(F)ccc2F)[C@@H](C)c2nc(-c3ccc(C#N)cc3)cs2)c1.O=S(=O)([O-])O (stereo partly shown) [isavuconazonium sulfate]
concentration that prevented excystment in A. castellanii (A. castellanii): 136 µM

Reference: PMC9494960, “Antiamoebic Activity of Imidazothiazole Derivatives against Opportunistic Pathogen Acanthamoeba castellanii” (Antibiotics, 2022)
